# In patent US20140348897A1, “TREATMENT OR REDUCTION OF DENTAL CONDITIONS WITH ASCORBYL ESTERS” (HILL'S PET NUTRITION, INC., priority 2011, published 2014):
# How the values were obtained:
# dental plaque formation [1] = assay: 8-day GCPI dental plaque quantification model, feeding food coated with ascorbyl palmitate solution; type: in vivo, dogs; details: four days
# Method: Ascorbyl palmitate was assessed for its ability to inhibit dental plaque formation when applied indirectly, i.e., by feeding animals a pet food composition as described. In this experiment, the 8-day GCPI dental plaques quantification model of […] et al. was used ([…] et al. (2007) J. Vet. Dent. 24(1): 14-20). The teeth of the test animals are cleaned at the beginning of the study, after which the animals were fed either a control food (a commercially-available canine pet food composition) or the same food upon which a solution of ascorbyl palmitate in soybean oil was sprayed to a final concentration (w/w) of 0.1% of the total weight of the food. The food coated with the ascorbyl palmitate solution was fed to dogs over a period of four days and dental plaque accumulation was quantified and compared with their dental plaque accumulation while on the control food. […] The GCPI uses a scale of 0-100%.
# dental plaque formation [2] = assay: 24-hour plaque accumulation model, direct application to the teeth with a dental swab; type: in vivo, dog; details: dogs
# Method: Ascorbyl palmitate was assessed for its ability to inhibit dental plaque in 24-hour plaque accumulation model, according to a modification of the method of […] et al. ([…] et al. (2007) J. Vet. Dent. 24(1): 14-20), in which the compound to be tested is directly applied to the teeth as a solution using a dental swab as applicator, and the dental plaque accumulation time was set at 24 hours. A solution of ascorbyl palmitate (0.3 g in 10 mL soybean oil) was administered to the cleaned buccal tooth and gingival surfaces of each dog using a dental swab, in such a manner that 0.3 g of ascorbyl palmitate was applied. Control animals were treated with soybean oil alone. Twenty-four hours after application, the accumulation of dental plaque was quantitatively evaluated using a standardized method designated as the gingival contour plaque index (“GCPI”). […] The GCPI uses a scale of 0-100%.
smiles,measurement,setting,value
CCCCCCCCCCCCCCCC(=O)OC[C@H](O)[C@H]1OC(=O)C(O)=C1O [ascorbyl palmitate],Plaque accumulation average score (GCPI),"dental plaque formation [1]; dogs fed food sprayed with ascorbyl palmitate in soybean oil to 0.1% (w/w) of the food, GCPI scale 0-100%, control food 68.2±11.9",53.7±12.1%
same,improvement in plaque accumulation versus control food,"dental plaque formation [1]; dogs, food with 0.1% (w/w) ascorbyl palmitate",21.3%
same,improvement in plaque accumulation versus soybean oil control,"dental plaque formation [2]; 0.3 g applied directly, 24 hours",27.8%
same,Plaque accumulation average score (GCPI),"dental plaque formation [2]; 0.3 g in 10 mL soybean oil applied to cleaned buccal tooth and gingival surfaces, 24 hours after application, GCPI scale 0-100%, soybean oil control 24.9±9.4",18.9±9%
